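48-hour exposure; five concentrations; linearly interpolated endpoints. GI50 marks 50% less growth. The concentration for full growth arrest is given as TGI.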 Where only a bound is given, the exact number is not on record here.

Our source for the TGI and GI50 values is PubChem BioAssay (NCI).

Some test systems named below: UACC-62 melanoma; SR leukemia; SW-620 colon; M14 melanoma; ACHN renal; SNB-75 CNS; SF-539 CNS; SN12C renal; 786-0 renal; A498 renal.
What all share (experiment): NCI anticancer screen, dose series, 48 h

Consider `CSc1nnc2n1-c1ccccc1SCC2`, for which the TGI in the assay on UACC-62 melanoma, in the assay with SR leukemia, in the assay on SW-620 colon, in the assay with M14 melanoma, in the assay with ACHN renal and in the assay on SNB-75 CNS was greater than 100 µM each time. For the same compound, the TGI in the assay with SF-539 CNS, with SN12C renal, with 786-0 renal and with A498 renal was greater than 100 µM throughout.

In the case of `COc1ccccc1NC(=O)C(=O)C(C#N)CC(C)(C)C=O` (stereo not given), the TGI with UACC-62 melanoma, in the assay on SR leukemia, in the assay on SW-620 colon, in the assay with M14 melanoma, with ACHN renal and with SNB-75 CNS was greater than 100 µM in each case. Besides, the TGI with SF-539 CNS, in the assay on SN12C renal, with 786-0 renal and with A498 renal was greater than 100 µM each time.

Consider `OC1/C(=C/c2ccccc2)CNC/C1=C\c1ccccc1` (stereo not given), for which the TGI in the assay with UACC-62 melanoma, in the assay on SR leukemia, with SW-620 colon, in the assay with M14 melanoma, in the assay on ACHN renal and with SNB-75 CNS was greater than 100 µM throughout. For the same compound, the TGI in the assay with SF-539 CNS, in the assay on SN12C renal, in the assay on 786-0 renal and in the assay on A498 renal was greater than 100 µM in each case.

`COc1ccc2nc3c(cc2c1)C(=O)CC(C(F)(F)F)C3` (stereo not given): the GI50 with UACC-62 melanoma was 0.602 µM; in the assay on SR leukemia, 0.262 µM; in the assay on SW-620 colon, 2.68 µM; in the assay on M14 melanoma it was 0.238 µM; in the assay with ACHN renal, 1.02 µM; in the assay on SNB-75 CNS, 1.04 µM. Further, the GI50 with SF-539 CNS is 1.74 µM; with SN12C renal it was 0.805 µM; in the assay with 786-0 renal it was 4.36 µM; with A498 renal, 0.278 µM. The TGI in the assay on UACC-62 melanoma, with SR leukemia, in the assay with SW-620 colon, in the assay with M14 melanoma, in the assay with ACHN renal and with SNB-75 CNS was greater than 100 µM throughout. The TGI in the assay on SF-539 CNS is 5.64 µM; in the assay on SN12C renal, greater than 100 µM; in the assay with 786-0 renal, greater than 100 µM; in the assay with A498 renal, 1.55 µM.

Turning to `CC(=O)SC(C[N+](=O)[O-])c1ccccc1` (stereo not given), the TGI was 28.5 µM in the assay on UACC-62 melanoma; 6.85 µM in the assay on SR leukemia; 5.6 µM with SW-620 colon; 17.2 µM in the assay with M14 melanoma; 8.94 µM in the assay with ACHN renal; 7.65 µM with SNB-75 CNS. Besides, the TGI came to 5.26 µM in the assay on SF-539 CNS, 27.3 µM in the assay on SN12C renal, 23.7 µM with 786-0 renal and 20.7 µM in the assay on A498 renal.

Regarding `CCn1cc(C(=O)O)c(=O)c2cc(F)c(N3CCNCC3)nc21`, the TGI in the assay with UACC-62 melanoma, in the assay with SR leukemia, in the assay on SW-620 colon, with M14 melanoma, with ACHN renal and in the assay with SNB-75 CNS was greater than 100 µM each time. For the same compound, the TGI with SF-539 CNS, in the assay with SN12C renal, with 786-0 renal and in the assay on A498 renal was greater than 100 µM throughout.

For `Cc1nc(N(C)C)nc(-c2cccc(-c3ccn(CCN(C)C)n3)c2)c1C`, the GI50 in the assay on UACC-62 melanoma was greater than 20 µM; with SR leukemia it was greater than 20 µM; with SW-620 colon, greater than 20 µM; with M14 melanoma, greater than 20 µM; in the assay on ACHN renal, greater than 20 µM; with SNB-75 CNS, 4.04 µM. Further, the GI50 was greater than 20 µM in the assay with SF-539 CNS, greater than 20 µM with SN12C renal, greater than 20 µM in the assay on 786-0 renal and 0.628 µM in the assay on A498 renal. The TGI in the assay on UACC-62 melanoma, in the assay on SR leukemia, in the assay on SW-620 colon, in the assay with M14 melanoma, with ACHN renal and with SNB-75 CNS was greater than 20 µM in each case. Further, the TGI with SF-539 CNS, in the assay with SN12C renal, in the assay on 786-0 renal and with A498 renal was greater than 20 µM in each case.

As for `CCOc1ccc(-n2cc(-c3ccc(N(C)C)cc3)[n+]3c2CCCCC3)cc1`, the GI50 was 0.199 µM in the assay with UACC-62 melanoma; 0.978 µM in the assay on SR leukemia; 2.21 µM with SW-620 colon; 1.46 µM in the assay with M14 melanoma; 2.63 µM in the assay with ACHN renal; 0.906 µM in the assay with SNB-75 CNS. The GI50 is 2.26 µM in the assay with SF-539 CNS, 0.891 µM in the assay on SN12C renal, 2.69 µM in the assay on 786-0 renal and 1.22 µM in the assay on A498 renal. The TGI with UACC-62 melanoma was 13.5 µM; with SR leukemia, 29.4 µM; in the assay with SW-620 colon, greater than 100 µM; in the assay with M14 melanoma, 33.8 µM; in the assay on ACHN renal, greater than 100 µM; in the assay on SNB-75 CNS, 17.7 µM. Moreover, the TGI in the assay on SF-539 CNS was greater than 100 µM; with SN12C renal it was 19 µM; with 786-0 renal, greater than 100 µM; with A498 renal, 8.44 µM.
